Results filed as inconclusive are left out. Peptide text beside a SMILES is read from it.
Test system: mutant SOD1 toxicity cell model, protection read-out
Assay: attenuators of mutant SOD1 toxicity, cell-based (AID 1602)

| SMILES | EC50 [µM] |
| --- | --- |
| CC(C)CC1NC(=O)CNC1=O (centres undefined) | 50 |
| C[C@H](CCC(=O)O)[C@H]1CCC2C3C(=O)CC4CC(=O)CC[C@]4(C)C3CC(=O)[C@@]21C (some centres undefined) | 50 |
| C[C@H](CS)C(=O)N1CCC[C@H]1C(=O)O | 75 |
| CNCCc1ccccn1 | 50 |
| NCCCC(=O)O | 50 |
| c1ccc2c(CC3=NCCN3)cccc2c1 | 50 |
| NC[C@@H]1O[C@H](O[C@@H]2[C@@H](CO)OC(O[C@@H]3[C@@H](O)[C@H](N)C[C@H](N)[C@H]3OC3O[C@H](CN)[C@@H](O)[C@H](O)[C@H]3N)[C@@H]2O)[C@H](N)[C@@H](O)[C@@H]1O (some centres undefined) | 50 |
| CO/N=C(/C(=O)NC1C(=O)N2C(C(=O)O)=C(COC(N)=O)CSC12)c1ccco1 (centres undefined) | 50 |
| NC(N)=O | 75 |
| CC(=O)N[C@@H](CS)C(=O)O | 50 |
| CC(=O)OCC1=C(C(=O)O)N2C(=O)[C@@H](NC(=O)CSc3ccncc3)[C@H]2SC1 | 50 |
| O=C(O)c1ccccc1OP(=O)(O)O | 75 |
| NC(N)=NC(N)=Nc1ccccc1 | 50 |
| CN1C2CCC1CC(OC(=O)C(CO)c1ccccc1)C2 (centres undefined) | 50 |
| Cn1nnnc1SCC1=C(C(=O)O)N2C(=O)C(NC(=O)C(OC=O)c3ccccc3)C2SC1 (centres undefined) | 50 |
| CO/N=C(\C(=O)NC1C(=O)N2C(C(=O)O)=C(CSc3nc(=O)c(O)nn3C)CS[C@H]12)c1csc(N)n1 (some centres undefined) | 75 |
| CCN1CCN(C(=O)NC(C(=O)NC2C(=O)N3C(C(=O)O)=C(CSc4nnnn4C)CSC23)c2ccc(O)cc2)C(=O)C1=O (centres undefined) | 50 |

| SMILES | EC50 [µM] |
| --- | --- |
| Cc1ccc(/C(=C\CN2CCCC2)c2ccccn2)cc1 | 50 |
| CC(=O)Nc1cc([As](=O)(O)O)ccc1O | 50 |
| CN[C@H](CC(=O)O)C(=O)O | 50 |
| CC(CCc1ccccc1)NCC(O)c1ccc(O)c(C(N)=O)c1 (centres undefined) | 50 |
| Nc1ccc(S(N)(=O)=O)cc1 | 50 |
| CC(C(=O)O)c1cccc(C(=O)c2ccccc2)c1 (centres undefined) | 75 |
| CC[N+]1(C)CCCC(OC(=O)C(O)(c2ccccc2)c2ccccc2)C1 (centres undefined) | 50 |
| CCN1C[C@@]2(COC)C3[C@@H](OC)[C@H]4[C@@H]1[C@]3(C(OC)C[C@H]2O)C1C[C@@]2(O)[C@H](OC(=O)c3ccccc3)C1[C@]4(OC(C)=O)[C@@H](O)[C@@H]2OC (some centres undefined) | 50 |
| COC(=O)C1[C@H]2C[C@H]3c4[nH]c5ccccc5c4CCN3C[C@@H]2CC[C@@H]1O (some centres undefined) | 50 |
| CN(C)CCOC(=O)C(c1ccccc1)C1(O)CCCC1 (centres undefined) | 50 |
| COc1c2occc2c(OC)c2c(=O)cc(C)oc12 | 75 |
| Cc1ccc(C(=O)C(C)CN2CCCCC2)cc1 (centres undefined) | 50 |
| O=C1NCC2(CCN(CCc3ccccc3)CC2)O1 | 50 |
| CCn1cc(C(=O)O)c(=O)c2cc(F)c(N3CCNCC3)cc21 | 75 |
| Nc1ccc(S(=O)(=O)Nc2nccs2)cc1 | 50 |
| NCCCCC(N)C(=O)NC(Cc1ccc(O)cc1)C(=O)NC(CCCCN)C(=O)O (stereo not drawn) (H-Lys-Tyr-Lys-OH; configuration not given here) | 75 |
| CC(COc1ccccc1)NC(C)[C@H](O)c1ccc(O)cc1 (some centres undefined) | 50 |
